Source: paper PMC9674830, “A glutamine-based single α-helix scaffold to target globular proteins” (Nature Communications, 2022)
Read-outs that look alike come from different tables or passages of the source. Starred links: 1 amine or outer side, 2 acyl side, 3 side chain; linkers in the order of their positions; H or OH if unused. Positions of bridges follow the written chain, without caps; N, C: chain ends. Non-standard residues stand in square brackets, D forms with d. Residues, ends and D or L forms follow the SMILES beside them. No end group written: not given here. ξ: configuration not given here. ξαMeNle(6-ylidene) = CC(CCCC=[*:3])(N[*:1])C(=O)[*:2]

Columns and labels:
[1] = Peptide stability in human serum; format: in vitro ADME; details: for peptide in human serum over time, mean / remaining at 0.08 h, 300 μM / remaining at 0.25 h, 300 μM / remaining at 0.5 h, 300 μM / remaining at 1 h, 300 μM / remaining at 4 h, 300 μM / remaining at 6 h, 300 μM / remaining at 8 h, 300 μM / remaining at 24 h, 300 μM: SD, human serum, mean; for peptide in human serum over time, mean: in % (unit assumed); for remaining at 0.08 h, 300 μM: Time 0.08 (time unit inferred); for remaining at 0.08 h, 300 μM / remaining at 0.25 h, 300 μM / remaining at 0.5 h, 300 μM / remaining at 1 h, 300 μM / remaining at 4 h, 300 μM / remaining at 6 h, 300 μM / remaining at 8 h, 300 μM / remaining at 24 h, 300 μM: read-out: peptide in human serum over time, mean; for remaining at 0.25 h, 300 μM: Time 0.25 (time unit inferred); for remaining at 0.5 h, 300 μM: Time 0.50 (time unit inferred); for remaining at 1 h, 300 μM: Time 1.00 (time unit inferred); for remaining at 4 h, 300 μM: Time 4.00 (time unit inferred); for remaining at 6 h, 300 μM: Time 6.00 (time unit inferred); for remaining at 8 h, 300 μM: Time 8.00 (time unit inferred); for remaining at 24 h, 300 μM: Time 24.00 (time unit inferred); for half-life at 300 μM: human serum (Sigma-Aldrich), 1.5 mM peptide in 20 mM sodium phosphate pH 7.4 diluted 1:9, final 300 μM, 310 K, 24 h, methanol precipitation, HPLC peak area of intact peptide vs t = 0, three independent replicates
Method: Supplementary Figure 2 | Stability in human serum and internalization in human cells of peptides (P3-7)3 and (P3-7)3 Ctrl. a Human serum stability assay of peptides (P3-7)3, (P3-7)3 Ctrl and Angiopep-2 (sequence:
, a positive control for this assay 1), measured at increasing time points by monitoring the area of the HPLC peak corresponding to the intact peptide over the area of the same peak at t = […]
Peptide stability in human serum
1.5 mM solutions of the P(3-7)3, P(3-7)3 Ctrl and Angiopep-2 peptides were prepared as detailed above in 20 mM sodium phosphate, pH 7.4 and diluted in human serum (Sigma-Aldrich, Burlington, MA, USA) (1:9 dilution) to a final concentration of 300 μM. The incubation was performed at 310 K for 24 h, taking aliquots of 50 μL at several time points.
These samples were treated with 400 μL of methanol to precipitate the serum proteins and centrifuged for 30 min at 277 K. The supernatant was filtered and analyzed by HPLC to calculate the percentage of intact peptide in the sample. HPLC chromatograms were obtained on an Agilent 1260 Infinity II system with a PDA detector, with an Agilent Poroshell 120-EC18 (50 x 3 mm x 2.7 μm) column. The flow rate was 1 mL min-1 and acetonitrile (1% TFA) and water (1% TFA) were used as solvents, with 4 minute linear gradients from 5 % to 95 % of acetonitrile thermostated at 313 K. […]

RAP74-CTD = target: T1, RAP74-CTD (Homo sapiens, UniProt P35269); assay: NMR chemical shift perturbation titration of peptides into 15N RAP74-CTD (KD); format: binding; details: 298 K, pH 7.4; for KD range in words: NMR CSP titration, RAP74-CTD 50 μM; for Kd: 1H-15N BEST-TROSY CSP titration, 15N RAP74-CTD 50 μM, read-out: NMR-derived KD
T1 construct: spanning residues 450-517; His6-MBP (with TEV site) (N, cleaved yes); made in house; host or cells: E. coli Rosetta (DE3)pLysS
T1 sequence (P35269 450-517): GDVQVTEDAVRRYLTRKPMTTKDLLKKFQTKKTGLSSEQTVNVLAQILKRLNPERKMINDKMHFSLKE
Method: Recombinant samples with ^15N isotope enrichment of the C-terminal domain of subunit 1 of the general transcription regulator TFIIF (RAP74-CTD), spanning residues 450-517, were obtained as described previously. A codon-optimized synthetic gene cloned in a pDONR221 vector was obtained from GeneArt (Thermo Fisher Scientific, Waltham, MA, USA) and subcloned into a pDEST-His6MBP vector obtained from Addgene. Rosetta (DE3)pLysS competent cells (Novagen, Merck KGaA, Darmstadt, Germany) were grown in MOPS medium with ^15NH4Cl as the only nitrogen source (310 K, induction at OD600 = 0.7, 1 mM IPTG, harvesting 3 h after induction). Soluble fractions of cell lysates from sonication in lysis buffer (50 mM Tris-HCl, 1 M NaCl, 10 mM imidazole, pH 8.0) were purified by IMAC, and fractions containing the His6MBP-TEV-RAP74-CTD fusion were dialyzed at 277 K overnight against cleavage buffer (50 mM Tris-HCl, 200 mM NaCl, 0.5 mM EDTA, pH 8.0) in the presence of TEV protease (50 μg/mL). A second IMAC step was performed and the flow-through containing the RAP-CTD was loaded onto a HiTrap SP HP cation exchange column followed by a size exclusion chromatography step on a Superdex 75 GL 10/300 column equilibrated with NMR buffer (20 mM sodium phosphate, 0.1% trifluoroacetic acid, pH 7.4), both mounted in an Äkta Purifier System (GE Healthcare, Chicago, IL, USA). The sample was concentrated to 100 μM using an Amicon Ultra 15 mL centrifugal filter (Merck KGaA, Darmstadt, Germany).
Before the experiment, both the protein and the peptide were dialyzed (277 K, two dialysis steps) in the same preparation of NMR buffer (20 mM sodium phosphate, 0.1% trifluoroacetic acid, pH 7.4), using a Pur-A-Lyzer (Sigma-Aldrich, Burlington, MA, USA) and a Micro Float-A-Lyzer (Spectrum Laboratories, San Francisco, CA, USA) respectively. The chemical shift assignment of RAP74-CTD was reported previously (BMRB code 27288). Averaged ^1H and ^15N chemical shift perturbations (CSPs) were calculated as:2 ΔδAV=(Δδ1H)^2+1/5Δδ15N^2
Dissociation constants, KD, and averaged CSP amplitude, Δδmax, for δ, δstpl, γ and γstpl peptide binding to RAP74-CTD were obtained by a global fitting (nonlinear regression) of the 10% peaks with the largest averaged CSPs to the following single-site binding model (1:1 stoichiometry):3 Δδ=Δδmax([Protein]+[Peptide]+KD)−([Protein]+[Peptide]+KD)^2−4[Protein][Peptide]/2[Protein]

[2] = Time 0.00 (time unit not given)

Compound | remaining at 0.08 h, 300 μM [1] | remaining at 0.25 h, 300 μM [1] | remaining at 6 h, 300 μM [1] | remaining at 8 h, 300 μM [1] | KD range in words (RAP74-CTD) | Kd (RAP74-CTD; lower bound) | also measured
C[C@@H](O)[C@H](N)C(=O)N[C@@H](Cc1ccccc1)C(=O)N[C@@H](Cc1ccccc1)C(=O)N[C@@H](Cc1ccc(O)cc1)C(=O)NCC(=O)NCC(=O)N[C@@H](CO)C(=O)N[C@@H](CCCNC(=N)N)C(=O)NCC(=O)N[C@@H](CCCCN)C(=O)N[C@@H](CCCNC(=N)N)C(=O)N[C@@H](CC(N)=O)C(=O)N[C@@H](CC(N)=O)C(=O)N[C@@H](Cc1ccccc1)C(=O)N[C@@H](CCCCN)C(=O)N[C@H](C(=O)N[C@@H](CCC(=O)O)C(=O)N[C@@H](CCC(=O)O)C(=O)N[C@@H](Cc1ccc(O)cc1)C(=O)O)[C@@H](C)O [Angiopep-2, reference compound] | 52% | 72.6% | 16.7% | 18.3% |  |  | peptide in human serum over time, mean [1, 2]: 100.01; remaining at 0.5 h, 300 μM [1]: 32.2%; remaining at 1 h, 300 μM [1]: 73.3%; remaining at 4 h, 300 μM [1]: 24.9%; remaining at 24 h, 300 μM [1]: 22.5%
CC(C)C[C@@H]1NC(=O)[C@H](CCC(N)=O)NC(=O)C(C)(NC(=O)[C@H](Cc2c[nH]c3ccccc23)NC(=O)[C@H](CO)NC(=O)[C@H](C)NC(=O)[C@H](CO)NC(=O)[C@H](C)NC(=O)CNC(=O)[C@@H]2CCCN2C(=O)[C@H](CCCCN)NC(=O)[C@@H](N)CCCCN)CCCC=CCCCC(C)(C(=O)N[C@@H](CCC(=O)O)C(=O)N[C@@H](CCC(=O)O)C(=O)N[C@@H](CCC(N)=O)C(=O)N[C@@H](C)C(=O)N[C@@H](C)C(=O)N[C@@H](CCC(N)=O)C(=O)N[C@@H](C)C(=O)N[C@@H](C)C(=O)N[C@@H](CCCCN)C(=O)N[C@@H](CCCCN)C(=O)O)NC(=O)[C@H](Cc2ccccc2)NC1=O (stereo partly drawn) [γStpl] |  |  |  |  | mid-micromolar range |  | 
KKPGASAAAAQAAQAAQAAQAAQAAQAAKKY [(P3-7)3 Ctrl] | 96.4% | 97.3% | 115% | 98.4% |  |  | peptide in human serum over time, mean [1, 2]: 100.26; remaining at 0.5 h, 300 μM [1]: 114%; remaining at 1 h, 300 μM [1]: 115%; remaining at 4 h, 300 μM [1]: 94.5%; remaining at 24 h, 300 μM [1]: 110%; half-life at 300 μM [1]: > 24 h
KKPGASASWAQLFQEEQAAQAAKK [γCtrl] |  |  |  |  |  | > 1000 µM | 
KKPGASLAALQALQALQALQALQAAQAAKKY [(P3-7)3] | 113% | 120% | 103% | 86.3% |  | > 1000 µM | peptide in human serum over time, mean ([1]; Time 0.50 (time unit not given)): 137.50; peptide in human serum over time, mean ([1]; Time 1.00 (time unit not given)): 122.97; peptide in human serum over time, mean ([1]; Time 4.00 (time unit not given)): 139.36; peptide in human serum over time, mean ([1]; Time 24.00 (time unit not given)): 128.28; half-life at 300 μM [1]: > 24 h
KKPGASLAALQELQLLQLLQELQAAQAAKKY [δ] |  |  |  |  |  |  | Kd (RAP74-CTD; 20 mM sodium phosphate, 0.1% TFA, global fit of 10% peaks with largest CSPs, 1:1 model, error by Monte-Carlo): 131 ± 20 µM
KKPGASLSWLQLFQEEQAAQAAKK [γ] |  |  |  |  | mid-micromolar range |  | 
SAAASSSWHTLFTAEEGQLYG [WHTLF, reference compound] |  |  |  |  |  | > 1000 µM | 

Further lines, with some results ahead:

remaining at 0.08 h, 300 μM [1] | remaining at 0.25 h, 300 μM [1] | remaining at 6 h, 300 μM [1] | remaining at 8 h, 300 μM [1] | KD range in words (RAP74-CTD) | Kd (RAP74-CTD; lower bound) | Compound | also measured
 |  |  |  | millimolar range |  | CC(C)C[C@@H]1NC(=O)[C@H](CCC(N)=O)NC(=O)C(C)(NC(=O)[C@H](CCC(=O)O)NC(=O)[C@H](CCC(N)=O)NC(=O)[C@H](C)NC(=O)[C@H](C)NC(=O)[C@H](C)NC(=O)[C@H](C)NC(=O)[C@H](CO)NC(=O)[C@H](C)NC(=O)CNC(=O)[C@@H]2CCCN2C(=O)[C@H](CCCCN)NC(=O)[C@@H](N)CCCCN)CCCC=CCCCC(C)(C(=O)N[C@@H](CC(C)C)C(=O)N[C@@H](C)C(=O)N[C@@H](CCC(N)=O)C(=O)N[C@@H](CCC(=O)O)C(=O)N[C@@H](CC(C)C)C(=O)N[C@@H](CCC(N)=O)C(=O)N[C@@H](C)C(=O)N[C@@H](C)C(=O)N[C@@H](CCC(N)=O)C(=O)N[C@@H](C)C(=O)N[C@@H](C)C(=O)N[C@@H](CCCCN)C(=O)N[C@@H](CCCCN)C(=O)N[C@@H](Cc2ccc(O)cc2)C(=O)O)NC(=O)[C@H](C)NC1=O (stereo partly drawn) [δStpl] (H-KKPGASAAAAQE[ξαMeNle(6-ylidene)]QLA[ξαMeNle(6-ylidene)]LAQELQAAQAAKKY-OH; staple 13-17; N-terminus and C-terminus assumed) | 
 |  |  |  |  | > 1000 µM | KKPGASAAAAQEAQLAQLAQELQAAQAAKKY [δctrl] | 
